Legend:
[1] = test system: NY-ESO-1 region consisting of amino acids 100-129; test: ELISA with assay OLPs as coating antigens to determine epitopes recognized by induced IgG; format: in vivo, human; details: accelerating the response, increasing titer, broadening antibody repertoire
Protocol: In these experiments, the epitopes recognized by the NY-ESO-1 specific IgGs that were induced by immunization were determined. ELISAs were carried out, using standard methods, with the assay OLPs supra being used as coating antigens. Antibody titers of subjects were tested at week 16, with the exception of one sample, which was tested at week 13. IgG responses were most frequent and strongest against the NY-ESO-1 region consisting of amino acids 121-150. The NY-ESO-1 region consisting of amino acids 80-109 was also recognized frequently, and in the case of the NY-ESO-1 region consisting of amino acids 100-129, all patients who received the combination of the peptides, Montanide, and polyICLC had relevant antibodies, as did 4/9 of the patients who received the peptides in Montanide only. There was a much lower response to the NY-ESO-1 region consisting of amino acids 142-173. In all cases, polyICLC enhanced the humoral, immune response, not only by accelerating the response and increasing titer, but also by broadening antibody repertoire.

CD4+ T cell lines = test: Cytokine production of CD4+ T cell lines by sandwich ELISA; format: in vivo, human
Protocol: Equal amounts of CD4^+ T cell lines created supra, and autologous EBV-B cells (5×10^4) were co-cultured in 250 μl RPMI and 10% FCS. After the EBV-B cells had been pulsed overnight or not with the assay OLPs and cultured for 24 hours, supernatant was harvested, and stored at −20° C. until sandwich ELISAs were carried out using standard methods. The cytokines which were assayed included IFN-γ, GM-CSF, IL-4, IL-9, IL-10, IL-13, IL-17, and TGF-β. These are all known to be produced by different CD4^+ subsets.

Substance: polyICLC
- effect on humoral immune response [1]: enhanced
- IL-9 production by T cells following immunization (CD4+ T cell lines; in vivo): inhibited completely
- level of IL-4 (CD4+ T cell lines; week 13 and 16): significantly suppressed
- level of IL-9 (CD4+ T cell lines; week 13 and 16): significantly suppressed
- level of IL-13 (CD4+ T cell lines; week 13 and 16): significantly suppressed
- IL-9/IL-4 ratio (CD4+ T cell lines; when polyICLC was used): significantly lower

Reference: patent publication US20120328660A1, “IMMUNOGENIC COMPOSITIONS USEFUL IN PROVOKING AN INTEGRATED RESPONSE TO TUMOR ANTIGENS” (priority 2011, published 2012)
